How the values were obtained:
[1] = MTD for daily dosing by two-fold dose escalation in tumor-bearing mice; format: in vivo
[2] = system: MDA-MB-231 xenograft; assay: RPPA of protein expression, MDA-MB-231 xenograft endpoint analysis; format: in vivo, nude mice; details: 4 mg/kg/day vs. PBS
Protocol: Frozen xenograft tissue samples were embedded in OCT, and 8 μm sections were obtained using a cryostat. […] The resulting whole tissue lysates were boiled for 8 min at 100° C. and then printed onto a nitrocellulose slide (Avid, Grace Biolabs) along with a BSA protein concentration curve to estimate total protein concentration in each lysate. Total protein levels were assessed in each sample by staining with Sypro Ruby Protein Blot Stain (Invitrogen) according to manufacturer's instructions.
The total protein concentration in each sample was estimated by printing onto a nitrocellulose slide along with a BSA standard concentration curve, and total protein levels were assessed by staining with Sypro Ruby Protein Blot Stain (Invitrogen) according to manufacturer's instructions. Tissue lysates were diluted to 250 μg/ml in extraction buffer and stored at −80° C. prior to printing of arrays. RPPA printing and analysis of xenograft samples was conducted as previously described (Wulfkuhle et al., Clin Cancer Res. 2012; 18:6426-35). Antibody staining intensities were quantified using the MicroVigene v5 Software Package (Vigenetech). Signaling pathway activation was evaluated by staining the arrays with 156 antibodies against signaling endpoints, mainly phosphorylated and cleaved protein products. Before use for RPPA analysis, antibody specificity was confirmed by Western blot and analysis as previously described (Wulfkuhle et al., Clin Cancer Res. 2012; 18:6426-35).

[3] = *separate RPPA analysis, separate β actin probe

CCCCCCNC(=N)NC(=N)NCc1ccccc1 [HBB, N1-hexyl-N5-benzyl-biguanide]
lethality ([1]; 8 mg/kg/day ip, cohorts of 5 tumor-bearing mice): animal deaths within 3 days
MTD ([1]; athymic nude (Foxn1nu/Foxn1nu), mouse, in vivo, ip): 4 mg/kg/day
fold change: 4EBP1 S65 [2]: 1.143
fold change: 4EBP1 T37/46 [2]: 0.828
fold change: 4EBP1 T70 [2]: 1.117
fold change: A-Raf S299 [2]: 1.335
fold change: AKT S473 [2]: 1.795
fold change: AKT T308 [2]: 1.987
fold change: ALK [2]: 1.368
fold change: ALK Y1604 [2]: 1.302
fold change: AMPKalpha S485 [2]: 2.359
fold change: AMPKbeta S108 [2]: 1.081
fold change: ATF2 T69/71 [2]: 0.959
fold change: ATM S1981 [2]: 1.438
fold change: ATP CItrate Lyase S454 [2]: 1.229
fold change: ATR S428 [2]: 1.345
fold change: AXL [2]: 1.199
fold change: Acetyl-CoA Carboxylase S79 [2]: 1.295
fold change: Actin beta [2]: 1.000
fold change: Aurora A T288/B T232/C T198 [2]: 1.651
fold change: B-RAF [2]: 1.341
fold change: B-Raf S445 [2]: 1.392
fold change: BAD [2]: 1.198
fold change: BAD S112 [2]: 1.355
fold change: BAD S136 [2]: 1.550
fold change: BCL-2 [2]: 1.315
fold change: BIM [2]: 1.211
fold change: Bak [2]: 1.254
fold change: Bax [2]: 1.132
fold change: Bcl_xL [2]: 1.275
fold change: Beclin 1 [2]: 1.235
fold change: CREB S133 [2]: 1.164
fold change: Cl Caspase 3 D175 [2]: 1.484
fold change: Cl Caspase 9 D315 [2]: 1.437
fold change: Cl Caspase 9 D330 [2]: 1.492
fold change: Cleaved PARP D214 [2]: 1.223
fold change: Cofilin S3 [2]: 1.783
fold change: CrkL Y207 [2]: 1.186
fold change: Cyclin A [2]: 1.513
fold change: Cyclin B1 V152 [2]: 1.294
fold change: Cyclin D1 (G124-326) [2]: 1.272
fold change: Cyclin D1 T286 [2]: 1.693
fold change: E-Cadherin [2]: 1.903
fold change: EGFR [2]: 1.184
fold change: EGFR Y992 [2]: 1.970
fold change: EGFR Y1068 [2]: 1.557
fold change: EGFR Y1148 [2]: 1.407
fold change: EGFR Y1173 [2]: 1.388
fold change: ER TOTAL [2]: 1.304
fold change: ER alpha S118 [2]: 1.293
fold change: ERK 1-2 T202/Y204 [2]: 1.337
fold change: ERK TOTAL [2]: 1.242
fold change: Elk S383 [2]: 1.926
fold change: Ephrin A3 Y799/A4 Y799/A5 Y833 [2]: 1.553
fold change: ErbB2/HER2 Y877 [2]: 1.283
fold change: ErbB2/HER2 Y1248 [2]: 1.717
fold change: ErbB3/HER3 [2]: 0.828
fold change: ErbB3/HER3 Y1197 [2]: 1.363
fold change: ErbB3/HER3 Y1289 [2]: 1.558
fold change: FAK Y576/577 [2]: 1.291
fold change: FKHR T24/FKHRL1 T32 [2]: 1.039
fold change: FKHRL1 S253 [2]: 1.671
fold change: FOXO1 S256 [2]: 1.338
fold change: GRB2 [2]: 1.013
fold change: GSK-3alpha/beta S21/9 [2]: 1.294
fold change: HIF-1 alpha [2]: 1.096
fold change: HSP27 S82 [2]: 0.821
fold change: HSP70 [2]: 1.429
fold change: HSP90a T5/7 [2]: 1.555
fold change: Heregulin [2]: 0.654
fold change: Histone H3 S28 [2]: 1.222
fold change: IGF1R Y1135/36-IR Y1150/51 [2]: 1.118
fold change: IGF-1R Y1131/IR Y1146 [2]: 1.596
fold change: IGFBP7 [2]: 1.180
fold change: IL6 [2]: 1.192
fold change: IRS1 [2]: 0.996
fold change: IkappaB-alpha S32/36 [2]: 1.317
fold change: Insulin Receptor Beta [2]: 1.219
fold change: Jak2 Y1007 [2]: 1.647
fold change: KI67 [2]: 1.120
fold change: LC3B [2]: 1.109
fold change: LIMK1 T508/LIMK2 T505 [2]: 1.351
fold change: LKB1 S428 [2]: 1.652
fold change: MARCKS S152/156 [2]: 1.421
fold change: MCSFR Y723 [2]: 1.215
fold change: MDM2 S166 [2]: 1.189
fold change: MEK 1/2 S217/221 [2]: 1.772
fold change: Met Y1234/1235 [2]: 1.556
fold change: Musashi [2]: 1.320
fold change: NF-kappaB p65 S536 [2]: 1.655
fold change: PAK1 S199/204-PAK2 S192/197 [2]: 1.852
fold change: PAK1 T423/PAK2 T402 [2]: 1.245
fold change: PDGFR alpha Y754 [2]: 1.266
fold change: PDGFR beta [2]: 1.147
fold change: PDGFR beta Y716 [2]: 0.981
fold change: PDK1 S241 [2]: 1.118
fold change: PDL1 [2]: 0.548
fold change: PKC delta/theta S643/S676 [2]: 1.447
fold change: PKC zeta/lambda T410/403 [2]: 0.971
fold change: PLK1 T210 [2]: 1.301
fold change: PTEN [2]: 1.334
fold change: PTEN S380 [2]: 1.440
fold change: RAS TOTAL [2]: 1.486
fold change: Ras_GRF1 [2]: 1.237
fold change: Rb S780 [2]: 1.516
fold change: Ret Y905 [2]: 1.885
fold change: Ros Y2274 [2]: 1.481
fold change: S6 Ribosomal Protein S240/244 [2]: 0.457
fold change: SAPK/JNK T183/Y185 [2]: 1.410
fold change: SGK1 S78 [2]: 1.510
fold change: SMAD2 S245/250/255 [2]: 1.425
fold change: STAT3 S727 [2]: 1.302
fold change: Shc Y317 [2]: 1.307
fold change: Src Y527 [2]: 1.356
fold change: Src family Y416 [2]: 0.804
fold change: Stat 1 Y701 [2]: 1.092
fold change: Stat3 Y705 [2]: 1.421
fold change: Stat 5 Y694 [2]: 0.929
fold change: TGF-beta [2]: 1.188
fold change: TNF alpha [2]: 1.119
fold change: Tuberin/TSC2 Y1571 [2]: 1.417
fold change: VEGFR2 Y996 [2]: 1.205
fold change: Vimentin [2]: 1.021
fold change: XIAP [2]: 1.311
fold change: c-Abl T735 [2]: 1.596
fold change: c-Abl Y245 [2]: 1.215
fold change: c-ErbB2/HER2 [2]: 1.184
fold change: c-Kit Y703 [2]: 1.408
fold change: c-Met TOTAL [2]: 1.220
fold change: c-Myc [2]: 1.078
fold change: c-Raf S338 [2]: 1.229
fold change: eIF4G S1108 [2]: 1.471
fold change: mTOR [2]: 0.679
fold change: mTOR S2448 [2]: 1.515
fold change: p27 Kip1 [2]: 1.253
fold change: p27 T187 [2]: 1.152
fold change: p38 MAP Kinase T180/Y182 [2]: 1.075
fold change: p53 [2]: 1.390
fold change: p53 S15 [2]: 1.586
fold change: p70S6 Kinase [2]: 1.193
fold change: p70 S6 Kinase S371 [2]: 1.621
fold change: p70 S6 Kinase T389 [2]: 2.148
fold change: p70 S6 Kinase T412 [2]: 1.352
fold change: p90RSK T359/S363 [2]: 1.248
fold change: pYAP S127 [2]: 1.022
fold change: AMPK T172* [2, 3]: 3.561
fold change: AMPK total* [2, 3]: 0.555
fold change: PKM2 Y105* [2, 3]: 1.403
fold change: PKM2 total* [2, 3]: 1.339

— patent publication US20180177749A1, “USE OF CYP EXPRESSION TO DIRECT THERAPEUTIC INTERVENTION IN CANCER” (REGENTS OF THE UNIVERSITY OF MINNESOTA, priority 2016, published 2018)
